Test results as given in ChEMBL document CHEMBL1201862, “PubChem BioAssay data set” (2004).
Calls of active or inactive are those of the source.

Columns and labels:
[1] = target: T1, Sphingosine 1-phosphate receptor 4 (Homo sapiens, UniProt O95977); experiment: Fluorescence dose response cell-based high throughput screening assay for antagonists of the Sphingosine 1-Phosphate Receptor 4 (S1P4). [Related pubchem assays: 1524 (Confirmation in triplicates.), 1510 (Primary screen.)]; format: functional
T1 sequence (O95977 whole entry): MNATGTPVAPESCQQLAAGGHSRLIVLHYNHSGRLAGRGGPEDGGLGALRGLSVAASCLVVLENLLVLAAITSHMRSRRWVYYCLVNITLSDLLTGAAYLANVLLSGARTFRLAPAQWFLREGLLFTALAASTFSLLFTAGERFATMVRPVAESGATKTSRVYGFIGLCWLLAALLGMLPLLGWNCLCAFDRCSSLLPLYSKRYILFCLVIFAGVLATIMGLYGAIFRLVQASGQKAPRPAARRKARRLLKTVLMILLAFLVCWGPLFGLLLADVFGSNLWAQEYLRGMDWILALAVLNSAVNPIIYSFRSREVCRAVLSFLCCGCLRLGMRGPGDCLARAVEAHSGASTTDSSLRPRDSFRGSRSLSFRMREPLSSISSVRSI

Protein RecA = target: T2, Protein RecA (Mycobacterium tuberculosis, UniProt P9WHJ3); experiment: Fluorescence Cell-Free Homogeneous Dose Retest to Identify Inhibitors of RecA-Intein Splicing Activity. [Related pubchem assays (depositor defined):AID2097, AID2223, AID489010, AID492950]; format: functional
T2 sequence (P9WHJ3 whole entry): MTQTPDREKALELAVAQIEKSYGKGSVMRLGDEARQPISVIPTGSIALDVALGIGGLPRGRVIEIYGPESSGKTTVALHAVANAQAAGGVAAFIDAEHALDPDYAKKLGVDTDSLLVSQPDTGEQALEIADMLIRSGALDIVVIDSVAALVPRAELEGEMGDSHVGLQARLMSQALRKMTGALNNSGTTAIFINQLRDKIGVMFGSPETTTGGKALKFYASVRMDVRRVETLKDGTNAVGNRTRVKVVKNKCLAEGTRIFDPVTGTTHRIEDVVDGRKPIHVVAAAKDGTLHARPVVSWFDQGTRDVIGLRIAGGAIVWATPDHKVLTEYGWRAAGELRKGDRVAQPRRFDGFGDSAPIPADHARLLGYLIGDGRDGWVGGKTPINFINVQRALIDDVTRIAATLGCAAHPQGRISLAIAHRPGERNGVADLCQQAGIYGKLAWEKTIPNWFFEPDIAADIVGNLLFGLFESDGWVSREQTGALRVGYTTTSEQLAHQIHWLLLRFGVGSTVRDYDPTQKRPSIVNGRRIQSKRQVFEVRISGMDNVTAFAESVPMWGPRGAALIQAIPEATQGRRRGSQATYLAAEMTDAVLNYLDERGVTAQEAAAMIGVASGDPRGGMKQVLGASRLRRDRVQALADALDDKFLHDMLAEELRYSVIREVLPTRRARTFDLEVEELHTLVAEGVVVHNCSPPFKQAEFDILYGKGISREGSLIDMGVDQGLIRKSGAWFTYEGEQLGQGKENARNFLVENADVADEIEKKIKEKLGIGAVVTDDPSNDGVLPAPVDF

[2] = control 3'UTR Renilla luciferase suppression, dose response, counter-screen for Shn3 inhibitor project, cell-based, Clone20-Shn3RL, cherry-picked (AID 624133); format: functional
[3] = HepG2 cell cytotoxicity, dose response, cytotoxicity control for Shn3 inhibitor project, CellTiter-Glo, cherry-picked (AID 624134); format: functional, cell-based
[4] = Shn3 3'UTR reporter inhibitors, dose response, cell-based, Clone20 osteoblasts, firefly luciferase, cherry-picked (AID 624132); format: functional;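 further: firefly luciferase luminescence from reporter carrying the Shn3 3'UTR in osteoblasts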
[5] = target: Sphingosine 1-phosphate receptor 2 (Homo sapiens, UniProt O95136); experiment: Dose Response Cell Based Assay for Antagonists of the S1P2 Receptor. [Related pubchem assays: 856, 736 ]; format: functional
Beta Lactamase = Beta Lactamase (Pseudomonas aeruginosa, UniProt Q932Y6); experiment: beta-lactamase reporter inhibitor potency, dose response, artefact control for TLR9-MyD88 binding inhibitor project, BLA reporter cells, FRET fluorescence (AID 588341); format: cell-based;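 further: cell based assay in CHO-K1 cells stably expressing beta-lactamase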
[6] = target: T3, Replicative DNA helicase DnaB (Mycobacterium tuberculosis, UniProt P9WMR3); experiment: DnaB intein splicing inhibitors, dose response, biochemical, cell-free fluorescence (AID 449749); format: functional
T3 sequence (P9WMR3 whole entry): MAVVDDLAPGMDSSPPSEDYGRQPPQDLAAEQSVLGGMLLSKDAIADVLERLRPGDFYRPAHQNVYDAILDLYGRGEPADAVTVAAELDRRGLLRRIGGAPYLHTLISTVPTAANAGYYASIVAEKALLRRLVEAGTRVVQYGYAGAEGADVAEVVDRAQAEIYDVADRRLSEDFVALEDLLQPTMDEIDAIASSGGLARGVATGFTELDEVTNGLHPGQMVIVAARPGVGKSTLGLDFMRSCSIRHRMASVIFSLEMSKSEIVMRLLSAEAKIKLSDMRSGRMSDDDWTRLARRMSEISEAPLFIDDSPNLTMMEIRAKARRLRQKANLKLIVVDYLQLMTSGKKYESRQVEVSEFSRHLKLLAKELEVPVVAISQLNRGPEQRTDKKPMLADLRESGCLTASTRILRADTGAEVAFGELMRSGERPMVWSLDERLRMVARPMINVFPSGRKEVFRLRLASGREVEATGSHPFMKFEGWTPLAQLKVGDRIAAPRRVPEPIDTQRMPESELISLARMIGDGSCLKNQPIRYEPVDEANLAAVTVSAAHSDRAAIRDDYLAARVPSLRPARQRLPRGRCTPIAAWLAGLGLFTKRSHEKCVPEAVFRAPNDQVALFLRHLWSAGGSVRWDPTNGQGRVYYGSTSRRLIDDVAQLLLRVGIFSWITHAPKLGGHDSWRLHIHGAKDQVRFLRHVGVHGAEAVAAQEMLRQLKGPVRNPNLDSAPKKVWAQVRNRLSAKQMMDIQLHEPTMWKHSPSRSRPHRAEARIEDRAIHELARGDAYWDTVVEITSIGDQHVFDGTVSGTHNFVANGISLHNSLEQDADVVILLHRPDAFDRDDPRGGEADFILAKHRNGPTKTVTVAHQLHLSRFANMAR

CHO = experiment: cytotoxicity in TLR9-MyD88 CHO cells, dose response, cytotoxicity control for TLR9-MyD88 binding inhibitor project, cell-based, luminescence (AID 588339); format: functional, hamster; settings: Cricetulus griseus;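 further: CHO cells stably coexpressing TLR9 and MyD88 fusions from primary screen; compound exposure lasted 48 hours before viability readout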
[7] = target: Sphingosine 1-phosphate receptor 1 (Homo sapiens, UniProt P21453); format: functional;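 further: Tango beta-arrestin reporter U2OS cells stimulated with S1P near its EC80; inhibitor potency meaning antagonism of receptor activation by the natural agonist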
[8] = cytotoxicity in HEK-293T cells, dose response, cytotoxicity control for TCR NF-kB inhibitor project, luminescence, T-cell screen hits (AID 489026); format: functional, cell-based;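 further: cells exposed to compound about 14 hours before the viability readout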
[9] = target: T4, Sentrin-specific protease 7 (Homo sapiens, UniProt Q9BQF6); experiment: SENP7 protease inhibitors, SAR follow-up, biochemical, luminescence (AID 504497); format: functional
T4 sequence (Q9BQF6 whole entry): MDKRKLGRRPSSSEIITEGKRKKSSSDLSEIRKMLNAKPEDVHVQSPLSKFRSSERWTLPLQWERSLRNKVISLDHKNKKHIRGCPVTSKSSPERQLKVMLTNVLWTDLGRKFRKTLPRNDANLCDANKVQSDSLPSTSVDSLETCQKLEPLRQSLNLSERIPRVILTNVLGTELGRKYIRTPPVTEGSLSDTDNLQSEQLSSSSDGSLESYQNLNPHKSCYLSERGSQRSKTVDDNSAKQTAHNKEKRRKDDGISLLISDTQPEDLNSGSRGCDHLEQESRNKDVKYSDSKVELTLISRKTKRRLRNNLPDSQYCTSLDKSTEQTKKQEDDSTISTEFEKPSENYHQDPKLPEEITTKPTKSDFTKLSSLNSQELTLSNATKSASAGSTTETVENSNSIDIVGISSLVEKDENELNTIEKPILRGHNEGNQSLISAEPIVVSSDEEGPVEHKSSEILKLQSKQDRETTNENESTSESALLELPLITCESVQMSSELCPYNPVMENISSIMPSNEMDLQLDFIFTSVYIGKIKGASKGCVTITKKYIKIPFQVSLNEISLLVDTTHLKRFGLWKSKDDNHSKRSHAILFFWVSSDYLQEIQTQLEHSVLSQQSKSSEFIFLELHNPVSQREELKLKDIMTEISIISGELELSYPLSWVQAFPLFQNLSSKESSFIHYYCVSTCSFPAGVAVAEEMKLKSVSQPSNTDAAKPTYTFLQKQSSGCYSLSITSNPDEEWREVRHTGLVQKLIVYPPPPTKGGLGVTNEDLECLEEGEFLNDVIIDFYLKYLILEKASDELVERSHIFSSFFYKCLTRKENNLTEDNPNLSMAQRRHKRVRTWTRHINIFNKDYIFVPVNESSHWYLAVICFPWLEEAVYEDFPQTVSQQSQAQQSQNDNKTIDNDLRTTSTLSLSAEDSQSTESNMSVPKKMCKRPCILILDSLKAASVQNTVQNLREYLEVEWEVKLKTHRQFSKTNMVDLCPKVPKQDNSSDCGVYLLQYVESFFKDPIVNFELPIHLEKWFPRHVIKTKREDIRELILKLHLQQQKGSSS

[10] = target: T5, Sentrin-specific protease 6 (Homo sapiens, UniProt Q9GZR1); experiment: SAR Analysis of small molecule inhibitors of Sentrin-specific protease 6 (SENP6) using a Luminescent assay. [Related pubchem assays (depositor defined):AID2582, AID2599]; format: functional
T5 sequence (Q9GZR1 whole entry): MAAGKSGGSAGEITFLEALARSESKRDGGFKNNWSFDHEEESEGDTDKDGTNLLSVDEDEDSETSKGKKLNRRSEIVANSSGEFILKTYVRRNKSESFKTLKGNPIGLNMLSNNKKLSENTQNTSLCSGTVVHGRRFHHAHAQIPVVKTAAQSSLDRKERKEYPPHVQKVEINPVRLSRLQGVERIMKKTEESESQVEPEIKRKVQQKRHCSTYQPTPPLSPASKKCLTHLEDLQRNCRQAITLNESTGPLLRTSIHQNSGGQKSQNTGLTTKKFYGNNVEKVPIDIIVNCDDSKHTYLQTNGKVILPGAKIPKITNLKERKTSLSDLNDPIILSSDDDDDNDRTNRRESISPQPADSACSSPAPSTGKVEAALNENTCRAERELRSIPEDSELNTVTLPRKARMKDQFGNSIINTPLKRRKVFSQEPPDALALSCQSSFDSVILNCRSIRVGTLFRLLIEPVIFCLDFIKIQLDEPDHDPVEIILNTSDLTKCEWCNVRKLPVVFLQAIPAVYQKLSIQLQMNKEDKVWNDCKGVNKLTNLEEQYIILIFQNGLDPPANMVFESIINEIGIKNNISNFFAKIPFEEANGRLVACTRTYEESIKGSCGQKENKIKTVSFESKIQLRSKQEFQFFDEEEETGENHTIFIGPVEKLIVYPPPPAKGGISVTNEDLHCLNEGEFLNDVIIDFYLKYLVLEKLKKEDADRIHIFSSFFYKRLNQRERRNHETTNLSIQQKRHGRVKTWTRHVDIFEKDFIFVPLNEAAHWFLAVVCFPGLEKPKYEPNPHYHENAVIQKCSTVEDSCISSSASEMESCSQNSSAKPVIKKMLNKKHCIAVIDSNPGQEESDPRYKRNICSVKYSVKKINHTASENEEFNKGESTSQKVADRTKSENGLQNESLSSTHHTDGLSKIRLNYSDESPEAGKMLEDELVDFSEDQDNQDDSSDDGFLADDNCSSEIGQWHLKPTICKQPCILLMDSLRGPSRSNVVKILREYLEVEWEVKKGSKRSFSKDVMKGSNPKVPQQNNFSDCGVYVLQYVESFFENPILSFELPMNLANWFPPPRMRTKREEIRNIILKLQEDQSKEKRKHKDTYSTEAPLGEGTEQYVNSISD

[11] = target: T6, Sentrin-specific protease 8 (Homo sapiens, UniProt Q96LD8); experiment: SENP8 protease inhibitors, SAR follow-up, biochemical, luminescence (AID 504501); format: functional
T6 sequence (Q96LD8 whole entry): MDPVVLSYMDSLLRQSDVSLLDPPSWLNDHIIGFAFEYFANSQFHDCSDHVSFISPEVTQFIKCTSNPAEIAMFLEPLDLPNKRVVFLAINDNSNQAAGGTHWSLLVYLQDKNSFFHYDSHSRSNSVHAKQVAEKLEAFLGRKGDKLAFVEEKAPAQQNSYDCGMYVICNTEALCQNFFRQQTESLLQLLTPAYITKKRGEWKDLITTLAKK

Caspase-3 = target: T7, Caspase-3 (Homo sapiens, UniProt P42574); experiment: SAR Analysis of small molecule inhibitors of Sentrin-specific proteases (SENPs) using a Caspase-3 Selectivity assay. [Related pubchem assays (depositor defined):AID2540, AID2599, AID434973, AID489001]; format: functional
T7 sequence (P42574 whole entry): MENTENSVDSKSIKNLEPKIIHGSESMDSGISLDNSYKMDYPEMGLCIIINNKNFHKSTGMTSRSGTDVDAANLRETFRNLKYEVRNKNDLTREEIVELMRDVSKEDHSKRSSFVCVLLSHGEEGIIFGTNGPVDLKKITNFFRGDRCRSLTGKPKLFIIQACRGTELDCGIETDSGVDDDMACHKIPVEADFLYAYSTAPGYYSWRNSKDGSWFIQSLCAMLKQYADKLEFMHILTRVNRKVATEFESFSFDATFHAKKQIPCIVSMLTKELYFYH

Sequence of Sphingosine 1-phosphate receptor 1 (P21453 whole entry): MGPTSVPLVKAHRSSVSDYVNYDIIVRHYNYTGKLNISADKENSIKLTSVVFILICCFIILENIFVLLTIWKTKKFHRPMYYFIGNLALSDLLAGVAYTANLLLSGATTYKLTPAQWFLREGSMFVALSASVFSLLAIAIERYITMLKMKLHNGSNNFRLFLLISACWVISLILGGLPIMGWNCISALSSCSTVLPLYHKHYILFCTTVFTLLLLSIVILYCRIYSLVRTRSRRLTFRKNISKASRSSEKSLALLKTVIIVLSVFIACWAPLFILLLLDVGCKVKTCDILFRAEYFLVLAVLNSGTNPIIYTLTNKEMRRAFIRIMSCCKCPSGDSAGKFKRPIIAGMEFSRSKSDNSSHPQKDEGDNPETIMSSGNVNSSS
Sequence of Sphingosine 1-phosphate receptor 2 (O95136 whole entry): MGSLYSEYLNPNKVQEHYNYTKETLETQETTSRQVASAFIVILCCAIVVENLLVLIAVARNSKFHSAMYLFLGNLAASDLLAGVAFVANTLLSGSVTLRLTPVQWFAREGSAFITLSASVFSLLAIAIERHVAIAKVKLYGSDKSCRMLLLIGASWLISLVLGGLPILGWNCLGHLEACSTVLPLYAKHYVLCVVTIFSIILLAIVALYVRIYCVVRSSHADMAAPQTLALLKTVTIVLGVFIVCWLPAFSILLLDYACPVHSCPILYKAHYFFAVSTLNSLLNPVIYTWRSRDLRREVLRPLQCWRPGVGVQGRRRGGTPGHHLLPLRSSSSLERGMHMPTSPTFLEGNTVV
Sequence of Beta Lactamase (Q932Y6 whole entry): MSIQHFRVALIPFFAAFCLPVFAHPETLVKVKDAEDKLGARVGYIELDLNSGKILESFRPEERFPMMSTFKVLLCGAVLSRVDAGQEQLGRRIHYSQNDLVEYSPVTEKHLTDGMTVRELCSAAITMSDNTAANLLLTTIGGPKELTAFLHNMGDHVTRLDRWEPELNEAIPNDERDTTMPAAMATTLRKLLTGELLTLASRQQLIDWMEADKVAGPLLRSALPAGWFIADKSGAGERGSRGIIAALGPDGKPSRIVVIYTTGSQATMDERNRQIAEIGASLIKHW

Row | SMILES | IC50 [1] | EC50 (Protein RecA) | AC50 [2] | AC50 [3] | AC50 [4] | IC50 [5] | IC50 (Beta Lactamase) | AC50 [6] | IC50 (CHO) | IC50 [7] | IC50 [8] | IC50 [9] | IC50 [10] | IC50 [11] | IC50 (Caspase-3)
1 | COc1ccc(CS(=O)(=O)/C(Cl)=C(/Cl)C(=O)Nc2ccc(OC)nc2)cc1 | 0.852 µM (active) | 3.34 µM (active) | 6.84 µM (active) | 10.6 µM (active) | < 0.26 µM (active) | 1.67 µM (active) | > 49.7 µM (inactive) | 3.88 µM (active) | 2.03 µM (active) | 6.21 µM (active) | 27.9 µM (inactive) | – | – | – | –
2 | CCOc1ccc2nc(NC(=O)c3nc(SC(C)C)ncc3Cl)sc2c1 | – | – | – | – | – | – | – | – | – | – | – | > 99 µM (inactive) | > 99 µM (inactive) | > 99 µM (inactive) | > 99 µM (inactive)
